Experimental findings from US10898537B2, “Transdermal formulations for delivery of capsaicinoids” (DELIVRA INC., priority 2015, dated 2021) are described below.

This series can be described thus: PAMPA assay, flux of capsaicin and osthole from buffer solutions with penetration enhancers (Experiments 1 and 2). It is filed as in vitro ADME. On the procedure: A. Preparation of Standards:
1 mg/mL stock solutions of polygodial, tetrahydropiperine (Cosmoperine™), osthole, dimethylisosorbide (DMI), Tazmanian Mountain Pepper (TMP), capsaicin and warfarin were prepared in methanol and stored at −20 ° C.
Prisma buffer preparation: Added 1.25 mL of Prisma™ HT buffer to 48.75 mL distilled water. Adjusted to pH 7.0 by adding 0.5 M NaOH dropwise.
50 μg/mL solutions of capsaicin, warfarin and osthole were prepared by adding 50 μL of the 1 mg/mL solutions to 950 μL of MeOH:H2O (50:50).
Donor Well Solutions: Experiment 1—Polygodial, Osthole and Capsaicin with DMI and THP
Preparation of Capsaicin Solutions:
5 μg/mL solution of capsaicin was prepared in Prisma™ buffer solution by adding 5 μL of 1 mg/mL solution of capsaicin to 0.995 mL Prisma™ buffer.
5 μg/mL of capsaicin+5 μg/mL solution of DMI was prepared in Prisma™ buffer solution by adding 5 μL of 1 mg/mL of DMI and 5 μL of 1 mg/mL of capsaicin solution to 0.990 mL Prisma™ buffer.
5 μg/mL of capsaicin+5 μg/mL solution of THP was prepared in Prisma™ buffer solution by adding 5 μL of 1 mg/mL of THP and 5 μL of 1 mg/mL of capsaicin solution to 0.990 mL Prisma™ buffer.
Preparation of Osthole Solutions:
5 μg/mL solution of osthole was prepared in Prisma™ buffer solution by adding 5 μL of 1 mg/mL solution of osthole to 0.995 mL Prisma™ buffer.
5 μg/mL of osthole+5 μg/mL solution of DMI was prepared in Prisma™ buffer solution by adding 5 μL of 1 mg/mL of DMI and 5 μL of 1 mg/mL of osthole solution to 0.990 mL Prisma™ buffer.
5 μg/mL of osthole+5 μg/mL solution of THP was prepared in Prisma™ buffer solution by adding 5 μL of 1 mg/mL of THP and 5 μL of 1 mg/mL of osthole solution to 0.990 mL Prisma™ buffer.
Donor Well Solutions: Experiment 2—Osthole and Capsaicin with Polygodial, TMP and THP
5 μg/mL solution of capsaicin was prepared in Prisma™ buffer solution by adding 5 μL of 1 mg/mL solution of capsaicin to 0.995 mL Prisma™ buffer. (Solution A)
5 μg/mL of capsaicin+5 μg/mL solution of polygodial was prepared in Prisma™ buffer solution by adding 5 μL of 1 mg/mL of polygodial and 5 μL of 1 mg/mL of capsaicin solution to 0.990 mL Prisma™ buffer. (Solution B)
5 μg/mL of capsaicin+5 μg/mL solution of TMP was prepared in Prisma™ buffer solution by adding 5 μL of 1 mg/mL of TMP and 5 μL of 1 mg/mL of capsaicin solution to 0.990 mL Prisma™ buffer. (Solution C)
5 μg/mL of capsaicin+5 μg/mL TMP+5 μg/mL solution of tetrahydropiperine was prepared in Prisma™ buffer solution by adding 5 μL of 1 mg/mL of TMP and 5 μL of 1 mg/mL tetrahydropiperine and 5 μL of 1 mg/mL of capsaicin solution to 0.985 mL Prisma™ buffer. (Solution D)
5 μg/mL of capsaicin+5 μg/mL solution of tetrahydropiperine was prepared in Prisma™ buffer solution by adding 5 μL of 1 mg/mL of tetrahydropiperine and 5 μL of 1 mg/mL of capsaicin solution to 0.990 mL Prisma™ buffer. (Solution E)
5 μg/mL solution of osthole was prepared in Prisma™ buffer solution by adding 5 μL of 1 mg/mL solution of osthole to 0.995 mL Prisma™ buffer. (Solution F)
5 μg/mL of osthole+5 μg/mL solution of polygodial was prepared in Prisma™ buffer solution by adding 5 μL of 1 mg/mL of polygodial and 5 μL of 1 mg/mL of osthole solution to 0.990 mL Prisma™ buffer. (Solution G)
5 μg/mL of osthole+5 μg/mL solution of TMP was prepared in Prisma™ buffer solution by adding 5 μL of 1 mg/mL of TMP and 5 μL of 1 mg/mL of osthole solution to 0.990 mL Prisma™ buffer. (Solution H)
5 μg/mL of osthole+5 μg/mL TMP+5 μg/mL solution of tetrahydropiperine was prepared in Prisma™ buffer solution by adding 5 μL of 1 mg/mL of TMP and 5 μL of 1 mg/mL tetrahydropiperine and 5 μL of 1 mg/mL of osthole solution to 0.985 mL Prisma™ buffer. (Solution I)
5 μg/mL of osthole+5 μg/mL solution of tetrahydropiperine was prepared in Prisma™ buffer solution by adding 5 μL of 1 mg/mL of tetrahydropiperine and 5 μL of 1 mg/mL of osthole solution to 0.990 mL Prisma™ buffer. (Solution J) […]
(In general: The PAMPA barrier holds no transporters, so it reflects passive diffusion.)

SMILES strings stand for the structures.

Regarding `CO[C@H]1CO[C@H]2[C@@H]1OC[C@H]2OC` [DMI, Dimethyl Isosorbide], the “effect of penetration enhancer on capsaicin flux in the PAMPA system” value (Experiment 1, vs capsaicin alone over five hours) is reported as “neither penetration enhancer demonstrated a statistically significant increase in capsaicin flux”. Besides, the “effect of penetration enhancer on osthole flux in the PAMPA system” value (Experiment 1, vs osthole alone over five hours) is “No observable enhancement”.
Consider `COc1ccc2ccc(=O)oc2c1CC=C(C)C` [osthole], for which the “concentration quantified in the acceptor well” value by setting is: (alone, donor 5 μg/mL, 2.0 hours) 0.004 µg/mL; (alone, donor 5 μg/mL, 2.5 hours) 0.089 µg/mL; (alone, donor 5 μg/mL, 5.0 hours) 0.445 µg/mL; (with equimass DMI (5 μg/mL), 2.0 hours) 0.095 µg/mL; (with equimass DMI (5 μg/mL), 2.5 hours) 0.232 µg/mL; (with equimass DMI (5 μg/mL), 5.0 hours) 0.51 µg/mL. Moreover, the “concentration quantified in the acceptor well” value was determined as 0.261 µg/mL (with equimass THP (5 μg/mL), 2.0 hours); 0.324 µg/mL (with equimass THP (5 μg/mL), 2.5 hours); 0.549 µg/mL (with equimass THP (5 μg/mL), 5.0 hours).
Consider `CC1(C)CCC[C@]2(C)[C@@H](C=O)C(C=O)=CC[C@@H]12` [polygodial], for which the “effect of natural penetration enhancer on capsaicin flux in the PAMPA system” value (PAMPA) is on record as “appear to decreased the flux rate of capsaicin”.
